Measurements published in PMC6008465 (British Journal of Cancer, 2018).
Marks after values point to notes of the source that are not given here.

Assays:
[1] = Part A pharmacokinetics (plasma and urine, noncompartmental analysis); type: in vivo, human
Protocol: In Part A, blood was collected on Cycle 1, Days 1 and 15 at specified intervals prior to, during, and postinfusion (5 min–8 h), and on Days 2, 3, 16, and 17 (24 and 48 h postinfusion). Urine was collected on Cycle 1, Day 1 preinfusion, at 0–8 h, and 8–24 h. In Part B, blood was collected on Cycle 1, Day 1, prior to, during, and at 1–24 h postinfusion. Pharmacokinetic parameters were calculated using noncompartmental analysis.

[2] = system: advanced solid tumours; experiment: Part A tumour response (RECIST 1.0); type: in vivo, human
Protocol: The primary objectives of this phase 1 study were to evaluate the safety, tolerability, and MTD of once-weekly (Schedule I) and twice-weekly (Schedule II) dosing. […] Toxicity was managed by dose interruption, reduction, and/or discontinuation. Only Cycle 1 adverse events (AEs) were evaluable as DLTs. […] All ongoing patients could continue at 320 mg/m^2, regardless of initial starting dose.
Efficacy was assessed by tumour response determined by investigator review of computed tomography/magnetic resonance imaging scans using Response Evaluation Criteria in Solid tumours version 1.0 (RECIST).[17]

[3] = Cycle 1 Day 15, 160 mg/m^2 (n=3)
[4] = Cycle 1 Day 15, 320 mg/m^2 (n=6)
[5] = Cycle 1 Day 15, 400 mg/m^2 (n=1)
[6] = Cycle 1 Day 15, 480 mg/m^2 (n=4)

CCNc1cc(O)c2c(c1)/C=C/C[C@H](O)[C@H](O)C(=O)/C=C\[C@@H](C)[C@H](C)OC2=O [E6201, (3S,4R,5Z,8S,9S,11E)-14-(ethylamino)-8,9,16-trihydroxy-3,4-dimethyl-3,4,9,19-tetrahydro-1H-2-benzoxacyclotetradecine-1,7 (8H)-dione]
Cmax, mean (%CV) [1, 3]: 5430 (120) ng/mL | Tmax, median (range) [1, 3]: 0.25 (0.25–0.5) h | Vss, mean (%CV) [1, 3]: 110 (74) L | t½, mean [1, 3]: 4.20 (--) h | AUC(0-t), mean (%CV) [1, 4]: 11100 (13) ng·h/mL | CL, mean (%CV) [1, 4]: 49.8 (18) L/h | Cmax, mean (%CV) [1, 4]: 18000 (64) ng/mL | Tmax, median (range) [1, 4]: 0.25 (0.25–0.5) h | Vss, mean (%CV) [1, 4]: 111 (69) L | t½, mean [1, 4]: 6.83 (--) h | AUC(0-t), mean (%CV) [1, 5]: 10500 (--) ng·h/mL | Cmax, mean (%CV) [1, 5]: 21600 (--) ng/mL | Tmax, median (range) [1, 5]: 0.25 (0.25–0.25) h | AUC(0-t), mean (%CV) [1, 6]: 11300 (73) ng·h/mL | CL, mean (%CV) [1, 6]: 82 (38) L/h | Cmax, mean (%CV) [1, 6]: 12200 (88) ng/mL | Tmax, median (range) [1, 6]: 0.375 (0.25–0.5) h | Vss, mean (%CV) [1, 6]: 217 (84) L | t½, mean [1, 6]: 4.78 (--) h | Accumulation on multiple dosing ([1]; Day 15 vs Day 1, once-weekly dosing): Lack of E6201 accumulation | Mean clearance (CL), range over dose groups ([1]; Part A): 49.8 to 184 L/h | Renal clearance (CLR), range over dose groups ([1]; Part A): 1.65 to 137 mL/h | Time of peak E6201 concentration (mid-to-end of infusion) ([1]; Part A, 30-min IV infusion): 0.25 to 0.5 h | Best overall response: Complete response (CR) ([2]; 20 mg/m^2 (n=4)): 0 n (%) | Best overall response: Not evaluable (NE) ([2]; 20 mg/m^2 (n=4)): 0 n (%) | Best overall response: Partial response (PR) ([2]; 20 mg/m^2 (n=4)): 0 n (%) | Best overall response: Progressive disease (PD) ([2]; 20 mg/m^2 (n=4)): 3 (75.0) n (%) | Disease control rate (CR+PR+SD) ([2]; 20 mg/m^2 (n=4)): 1 (25.0) n (%) | Overall response rate (CR+PR) ([2]; 20 mg/m^2 (n=4)): 0 n (%) | Best overall response: Complete response (CR) ([2]; 40 mg/m^2 (n=3)): 0 n (%) | Best overall response: Not evaluable (NE) ([2]; 40 mg/m^2 (n=3)): 0 n (%) | Best overall response: Partial response (PR) ([2]; 40 mg/m^2 (n=3)): 0 n (%) | Best overall response: Progressive disease (PD) ([2]; 40 mg/m^2 (n=3)): 1 (33.3) n (%) | Disease control rate (CR+PR+SD) ([2]; 40 mg/m^2 (n=3)): 2 (66.7) n (%) | Overall response rate (CR+PR) ([2]; 40 mg/m^2 (n=3)): 0 n (%) | Duration of SD ([2]; 40 mg/m^2, patient with biliary duct cancer (BRAF-WT)): 4 cycles | Duration of SD ([2]; 40 mg/m^2, patient with colon cancer (BRAF-WT)): 6 cycles | Best overall response: Complete response (CR) ([2]; 80 mg/m^2 (n=3)): 0 n (%) | Best overall response: Not evaluable (NE) ([2]; 80 mg/m^2 (n=3)): 0 n (%) | Best overall response: Partial response (PR) ([2]; 80 mg/m^2 (n=3)): 0 n (%) | Best overall response: Progressive disease (PD) ([2]; 80 mg/m^2 (n=3)): 2 (66.7) n (%) | Disease control rate (CR+PR+SD) ([2]; 80 mg/m^2 (n=3)): 1 (33.3) n (%) | Overall response rate (CR+PR) ([2]; 80 mg/m^2 (n=3)): 0 n (%) | Duration of SD ([2]; 80 mg/m^2, patient with BRAF-WT uveal melanoma): 15 cycles | Best overall response: Complete response (CR) ([2]; 160 mg/m^2 (n=3)): 0 n (%) | Best overall response: Not evaluable (NE) ([2]; 160 mg/m^2 (n=3)): 1 (33.3) n (%) | Best overall response: Partial response (PR) ([2]; 160 mg/m^2 (n=3)): 0 n (%) | Best overall response: Progressive disease (PD) ([2]; 160 mg/m^2 (n=3)): 2 (66.7) n (%) | Disease control rate (CR+PR+SD) ([2]; 160 mg/m^2 (n=3)): 0 n (%) | Overall response rate (CR+PR) ([2]; 160 mg/m^2 (n=3)): 0 n (%) | Best overall response: Complete response (CR) ([2]; 320 mg/m^2 (n=7)): 0 n (%) | Best overall response: Not evaluable (NE) ([2]; 320 mg/m^2 (n=7)): 1 (14.3) n (%) | Best overall response: Partial response (PR) ([2]; 320 mg/m^2 (n=7)): 0 n (%) | Best overall response: Progressive disease (PD) ([2]; 320 mg/m^2 (n=7)): 4 (57.1) n (%) | Disease control rate (CR+PR+SD) ([2]; 320 mg/m^2 (n=7)): 1 (14.3) n (%) | Overall response rate (CR+PR) ([2]; 320 mg/m^2 (n=7)): 0 n (%) | Best overall response: Complete response (CR) ([2]; 400 mg/m^2 (n=1)): 0 n (%) | Best overall response: Not evaluable (NE) ([2]; 400 mg/m^2 (n=1)): 0 n (%) | Best overall response: Partial response (PR) ([2]; 400 mg/m^2 (n=1)): 0 n (%) | Best overall response: Progressive disease (PD) ([2]; 400 mg/m^2 (n=1)): 0 n (%) | Disease control rate (CR+PR+SD) ([2]; 400 mg/m^2 (n=1)): 1 (100) n (%) | Overall response rate (CR+PR) ([2]; 400 mg/m^2 (n=1)): 0 n (%) | Duration of SD ([2]; 400 mg/m^2, patient with gastric carcinoid (BRAF status unknown)): 4 cycles | Best overall response: Complete response (CR) ([2]; 480 mg/m^2 (n=4)): 0 n (%) | Best overall response: Not evaluable (NE) ([2]; 480 mg/m^2 (n=4)): 0 n (%) | Best overall response: Partial response (PR) ([2]; 480 mg/m^2 (n=4)): 1 (25.0)^a n (%) | Best overall response: Progressive disease (PD) ([2]; 480 mg/m^2 (n=4)): 0 n (%) | Disease control rate (CR+PR+SD) ([2]; 480 mg/m^2 (n=4)): 3 (75.0) n (%) | Overall response rate (CR+PR) ([2]; 480 mg/m^2 (n=4)): 1 (25.0) n (%) | Duration of SD ([2]; 480 mg/m^2, patient with papillary thyroid cancer (BRAF-WT)): 4 cycles | Duration of partial response ([2]; BRAF-mutated papillary thyroid cancer patient, 480 mg/m^2): 4 cycles | Best overall response: Complete response (CR) ([2]; Total (N=25)): 0 n (%) | Best overall response: Not evaluable (NE) ([2]; Total (N=25)): 2 (8.0) n (%) | Best overall response: Partial response (PR) ([2]; Total (N=25)): 1 (4.0) n (%) | Best overall response: Progressive disease (PD) ([2]; Total (N=25)): 12 (48.0) n (%) | Disease control rate (CR+PR+SD) ([2]; Total (N=25)): 9 (36.0) n (%) | Overall response rate (CR+PR) ([2]; Total (N=25)): 1 (4.0) n (%) | Number of partial responses (PR) ([2]; V600E BRAF-mutated papillary thyroid cancer, 480 mg/m^2 qw): One | Patients with SD for ≥4 cycles (3.7 months) ([2]; five patients): 20.0%
